# Columns and labels:
# Format in all cases: cell-based, murine
# RAW-Lucia target cells [1] = assay: Relative luciferase activity of RAW-Lucia cells under treatment configurations (FIG. 4)
# Method: (§1) FIG. 4 provides further experimental evidence with respect to the efficiency of cargo delivery to the specific target cells. The two charts show the relative luciferase activity of RAW-Lucia target cells four hours after treatment and 24 hours after treatment under different treatment configurations.
# Treatment configuration 1 represents a cell population having no treatment where no nanoparticles and no laser are introduced to the RAW-Lucia cell population.
# Treatment configuration 2 represents a cell population treated with CD14 ligand coated gold nanoparticles and a 10 uM cGAMP solution.
# Treatment configuration 3 is similar to treatment configuration 2 with the exception that a 1 uM cGAMP solution was introduced to the cell population rather than a 10 uM cGAMP solution.
# Treatment configuration 4 includes treating the target cells with just nanoparticles coated with CD14 ligand followed by application of laser stimulation.
# Treatment configuration 5 is similar to Treatment 4, although lacking laser stimulation.
# Treatment configuration 6 includes treating the cell population with just a 10 uM cGAMP solution without nanoparticles or application of laser stimulation.
# RAW-Lucia target cells [2] = assay: Relative luciferase activity of RAW-Lucia cells after BLAST delivery (FIG. 5); details: Treatment 2: BLAST, 2.5 uM cGAMP solution; 4 hour and 24 hour
# Method: as §1, with “FIG. 5” for “FIG. 4”, “target cells with respect to using a biophotonic laser-assisted surgery tool (BLAST, as described in Nature Methods 12, 439-444 (2015)).” for “target cells.”, “charts of FIG. 5” for “charts”, “under three” for “under”
# Treatment configuration 1 represents a control group where the cell population is not treated in order to provide a base line result.
# Treatment configuration 2 leverages BLAST where the cell population is bathed in a 2.5 uM cGAMP solution.
# Treatment configuration 3 includes co-incubation of the cell populations with a 2.5 uM cGAMP solution. However, the cell population is not exposed to laser stimulation via BLAST.
# It should be appreciated that FIG. 5 illustrates the efficacy of a method of inducing an interferon response in specific target cells, including target cells within a heterogeneous cell population. Free cyclic di-nucleotide cargo (i.e., cGAMP in the scenario of FIG. 5) was introduced to the cell population such that the cGAMP remained external to the target cells in a 2.5 uM solution. […]
# RAW-Lucia ISG cells = assay: RAW-Lucia ISG luciferase reporter, gold nanoparticle optofection of cGAMP (photomicrographs, FIGS. 2A-2C)
# Source text: FIGS. 2A-2C illustrate experimental evidence indicating the validity of the disclosed techniques though the use of RAW-Lucia® ISG cells that express luciferase when a Type I IFN response pathway is activated (see FIG. 3) by a CDN.
# FIG. 2A represents an experiment where gold nanoparticles lacking target cell ligands (here ligand for […]) and cGAMP cargo material are introduced to the cell population. No electro-magnetic stimulation is applied.
# FIG. 2B represents an experiment where gold nanoparticles lacking target cell ligands (ligand for CD14) and cGAMP cargo material are introduced to the cell population. In this experiment, the nanoparticles were exposed to 3 mJ pulsed laser. […] The luciferase expression in FIG. 2B is considered to be present in response to random proximity of the gold nanoparticles to cells when the gold nanoparticles are excited by the laser.
# FIG. 2C represents an experiment where gold nanoparticles having a CD14 ligand and cGAMP cargo material are both introduced to the cell population. In this case, the nanoparticles attach to the target cells.
# The immune response induced in the experiments shown in FIGS. 2A-2C is evidenced by production of luciferase in specifically targeted cells. A mentioned previously, the specifically target cells selected for the experiments were RAW-Lucia™ ISG cells commercially available from InvivoGen® (see URL www.invivogen.com/raw-lucia-isg). The RAW-Lucia cells express luciferase gene (Lucia) through various IFN-stimulated response elements (ISRE) as indicated in FIG. 3. Thus, when an IFN response is stimulated, the cells express the luciferase gene. Of specific note, when CDNs are introduced to the RAW-Lucia cells, the IFN response is activated causing expression of the luciferase gene. Therefore, FIG. 2C clearly provides evidence via substantial luciferase expression that the disclosed technique of causing a cell to uptake CDNs (e.g., cGAMP, etc.) via externally generated poration is capable of inducing an immune response. Such result is not necessarily predictable as laser excitation and concomitant cavitation events may damage or interfere with signal transduction events.
# [3] = gold nanoparticles having a CD14 ligand plus cGAMP, 2 mJ pulsed laser (FIG. 2C)
smiles,measurement,setting,value
Nc1nc2c(ncn2[C@@H]2O[C@@H]3COP(=O)(O)O[C@H]4[C@@H](O)[C@H](n5cnc6c(N)ncnc65)O[C@@H]4COP(=O)(O)O[C@@H]2[C@@H]3O)c(=O)[nH]1 [cGAMP],relative luciferase activity,"RAW-Lucia target cells [1]; Treatment 2: CD14 ligand coated gold nanoparticles, 10 uM cGAMP solution, laser, 4 h and 24 h after treatment",significant luciferase activity
same,relative luciferase activity,"RAW-Lucia target cells [1]; Treatment 3: CD14 ligand coated gold nanoparticles, 1 uM cGAMP solution, laser, 4 h and 24 h after treatment",fairly similar to Treatment 2
same,relative luciferase activity,"RAW-Lucia target cells [1]; Treatment 6: 10 uM cGAMP solution only, no nanoparticles, no laser",reduced level of luciferase activity
same,relative luciferase activity,RAW-Lucia target cells [2],significant luciferase activity
same,cell viability,RAW-Lucia ISG cells; [3],substantially all cells retained viability
same,luciferase expression,RAW-Lucia ISG cells; [3],nearly all cells express luciferase
same,luciferase expression,"RAW-Lucia ISG cells; gold nanoparticles lacking target cell ligands plus cGAMP, 3 mJ pulsed laser (FIG. 2B)",some cells express luciferase
same,luciferase expression,"RAW-Lucia ISG cells; gold nanoparticles lacking target cell ligands plus cGAMP, no electro-magnetic stimulation (FIG. 2A)",very little or negligible luciferase expression

# From US10322177B2, “Activation of immune-related signaling pathways in cells via optofection” (Nant Holdings IP, LLC, priority 2015, dated 2019)
